Experimental data: patent US11583506B1, “Cannabinoids for use in suppressing cancer stem cells” (VIVACELL BIOTECHNOLOGY ESPAÑA S.L.U., priority 2020, dated 2023)
Entries after “also recorded” stand apart in the source; their conditions may differ.

Experiments:
Type in all cases: cell-based, human
Hes5 = Hes5 protein level in HCT 116 cells by western blot; conditions: 10 μM, 6, 16 and 24 hours
Experimental: In cancer stem cells Notch1 signalling pathway is abnormally activated (Venkatesh V et al. Stem Cell Investig. 2018 Mar. 12; 5:5. doi: 10.21037/sci.2018.02.02. PMID: 29682512). For this reason, to further analyse the anti-proliferative CBD effect on colonospheres formation, Notch1 expression was investigated by western blot analysis. Briefly, after treatments, the colonospheres were washed with PBS1X and whole-cell proteins were extracted in 50 μL of lysis buffer (50 mM Tris-HCl pH 7.5, 150 mM NaCl, 10% glycerol and 1% NP-40) supplemented with 10 mM NaF, 1 mM Na3VO4, 10 μg/mL leupeptine, 1 μg/mL pepstatin and aprotinin, and 1 μL/mL phenylmethylsulfonyl fluoride saturated. Protein concentration of the whole-cell lysates was quantified by absorbance at 595 nm using Bradford reagent compared to a bovine serum albumin standard curve. Then, forty micrograms of protein were boiled at 95° C. in Laemmli buffer and electrophoresed in 10% SDS/PAGE gels. […] After washing membranes, horseradish peroxidase-conjugated secondary antibody was added and the protein bands on the membranes were detected with ECL reagent (BioRad. Hercules, Calif., USA) by chemiluminescence system (GE Healthcare Europe GmbH. Munich, Germany). […]

HCT 116 cells = assay: tumorospheres (colonospheres) formation assay; conditions: 7 days of treatment, 1, 2.5, 5 and 10 μM, vs vehicle (DMSO)
Description: Cancer stem cells (CSC) cultured 3-dimentionally in a serum-free medium supplemented with growth factors are able to form floating spheroids known as tumorospheres (Reynolds B A et al. Dev Biol. 1996; 175(1):1-13. doi:10.1006/dbio.1996.0090; Singh S K et al. Cancer Res. 2003; 63(18):5821-8. PMID: 14522905). These cancer cells-derived spheroids have been proven to display CSCs characteristics and recapitulate in vitro the in vivo conditions of cancer growth becoming an ideal model to evaluate anti-CSC drugs (Dieter S M et al. Cell Stem Cell. 2011; 9(4):357-65. doi: 10.1016/j.stem.2011.08.010. PMID: 21982235; Lee C H et al. Oncotarget. 2016; 7(2):1215-26. doi: 10.18632/oncotarget.6261. PMID: 26527320).
To study the CBD effect on colonospheres proliferation, a tumorospheres formation assay was performed. Briefly, human colorectal carcinoma HCT 116 cells (ATCC No. CCL-247) were trypsinized, quantified and seeded at clonal density (5 cell/μL) in ultra-low attachment surface 96-well plates (Corning-Costar. Coming, N.Y., USA) with serum free Dulbecco's Modified Eagle's Medium (DMEM)/Nutrient Mixture F-12 Ham (Sigma-Aldrich. St. Louis, Mo., USA) supplemented with 1X B-27 (Invitrogen, Carlsbad, Calif., USA), 10 ng/mL basic fibroblast growth factor (bFGF; PeproTech. London, UK), 20 ng/mL epidermal growth factor (EGF; Santa Cruz Biotechnology, Heidelberg, Germany), 1% (v/v) methylcellulose (R&D Systems. Minneapolis, Minn., USA) to prevent cell aggregation and the corresponding dose of vehicle (DMSO) or CBD concentration (1, 2.5, 5 and 10 μM). Every 2-3 days freshly supplements were added and the number and size of colonospheres were analysed by optical microscopy 1 week after seeding.

Notch1 [1] = assay: Notch1 degradation with proteasome inhibitor MG132 in HCT 116 cells; conditions: 24 hours, 10 μM CBD and/or 10 μM MG-132
Experimental: (§1) To gain insight into the CBD effect on Notch1 pathway, a deep study using the human colorectal carcinoma HCT 116 cell line (ATCC No. CCL-247) was performed to analyse Notch1 levels. […] Moreover, the Hes5 protein level, a Notch signalling-related protein, was also analysed by western blot following the methodology explained above and using a specific primary antibody (Human anti-Hes5. 1:1000 dilution. Ref. #ab25374, Abcam. Cambridge, UK). […] To further clarify the CBD mechanism of causing a reduced Notch1 expression, HCT 116 cells were incubated with the proteasome inhibitor MG132 and/or with CBD.

Notch1 [2] = assay: Notch1 levels in HCT 116 cells by western blot; conditions: for Notch1 levels, panel of natural cannabinoids / Notch1 expression levels, concentration dependence: HCT 116 cells; for Notch1 levels, panel of natural cannabinoids: 24 hours, 10 μM; for Notch1 expression levels, concentration dependence: 24 hours, 1, 2.5, 5 and 10 μM
Experimental: In cancer stem cells Notch1 signalling pathway is abnormally activated (Venkatesh V et al. Stem Cell Investig. 2018 Mar. 12; 5:5. doi: 10.21037/sci.2018.02.02. PMID: 29682512). For this reason, to further analyse the anti-proliferative CBD effect on colonospheres formation, Notch1 expression was investigated by western blot analysis. Briefly, after treatments, the colonospheres were washed with PBS1X and whole-cell proteins were extracted in 50 μL of lysis buffer (50 mM Tris-HCl pH 7.5, 150 mM NaCl, 10% glycerol and 1% NP-40) supplemented with 10 mM NaF, 1 mM Na3VO4, 10 μg/mL leupeptine, 1 μg/mL pepstatin and aprotinin, and 1 μL/mL phenylmethylsulfonyl fluoride saturated. Protein concentration of the whole-cell lysates was quantified by absorbance at 595 nm using Bradford reagent compared to a bovine serum albumin standard curve. Then, forty micrograms of protein were boiled at 95° C. in Laemmli buffer and electrophoresed in 10% SDS/PAGE gels. Separated proteins were transferred to polyvinylidene difluoride (PVDF) membranes (20V for 30 min) and blocked in TBSIX solution containing 0.1% Tween 20 and 5% non-fat dry milk for 1 hour at room temperature. Immunodetection of specific proteins was carried out by incubation with primary antibody against human Notch1 (1:1000 dilution. Ref. #ab52627, Abcam. Cambridge, UK) and β-actin (1:10.000 dilution. Ref. #A5316, Sigma-Aldrich. St. Louis, Mo., USA) overnight at 4° C. After washing membranes, horseradish peroxidase-conjugated secondary antibody was added and the protein bands on the membranes were detected with ECL reagent (BioRad. Hercules, Calif., USA) by chemiluminescence system (GE Healthcare Europe GmbH. Munich, Germany).
The densitometry analysis was performed using ImageJ software, and the quantified band intensities were normalized to Actin. […] Thus, it can be concluded that the reduction of Notch1 levels is critical to inhibit the colonospheres proliferation.
as §1
A panel of natural cannabinoids CBDA, CBDV, CBC, CBCA, CBCV, CBG, CBGA, CBGV, CBGVA, CBN, THC and THCA were evaluated in its capacity to reduce Notch1 levels in human colorectal carcinoma HCT 116 cell line. CBD was purchase from Endoca BV (Netherlands). CBDA, CBDV, CBCA, CBG, CBGA, THC and […] were purchased from Phytoplant Research S.L (Cordoba, Spain). CBC, CBCV, CBGV, CBGVA and CBN were provided by the laboratory of the Professor Giovanni Appendino from the University of Piemonte Orientale (Novara, Italy).

Notch1 [3] = assay: Notch1 expression in colonospheres by western blot; conditions: colonospheres after 7 days of treatment, 1 and 5 μM, western blot normalized to Actin
Experimental: In cancer stem cells Notch1 signalling pathway is abnormally activated (Venkatesh V et al. Stem Cell Investig. 2018 Mar. 12; 5:5. doi: 10.21037/sci.2018.02.02. PMID: 29682512). For this reason, to further analyse the anti-proliferative CBD effect on colonospheres formation, Notch1 expression was investigated by western blot analysis. Briefly, after treatments, the colonospheres were washed with PBS1X and whole-cell proteins were extracted in 50 μL of lysis buffer (50 mM Tris-HCl pH 7.5, 150 mM NaCl, 10% glycerol and 1% NP-40) supplemented with 10 mM NaF, 1 mM Na3VO4, 10 μg/mL leupeptine, 1 μg/mL pepstatin and aprotinin, and 1 μL/mL phenylmethylsulfonyl fluoride saturated. Protein concentration of the whole-cell lysates was quantified by absorbance at 595 nm using Bradford reagent compared to a bovine serum albumin standard curve. Then, forty micrograms of protein were boiled at 95° C. in Laemmli buffer and electrophoresed in 10% SDS/PAGE gels. […] After washing membranes, horseradish peroxidase-conjugated secondary antibody was added and the protein bands on the membranes were detected with ECL reagent (BioRad. Hercules, Calif., USA) by chemiluminescence system (GE Healthcare Europe GmbH. Munich, Germany).
The densitometry analysis was performed using ImageJ software, and the quantified band intensities were normalized to Actin. […]

Notch1 [4] = assay: Notch1 expression in DU145 cancer cell line; conditions: DU145 (Prostate)
Experimental: (§2) The effect of CBGV on Notch1 expression levels was evaluated in a panel of cancer cell lines. Human colorectal carcinoma Hct116 (No. CCL-247), human colorectal adenocarcinoma HT-29 (No. HTB-38), human brain neuroblastoma SK—N—SH (No. HTB-11), human breast adenocarcinoma MDA-MB-231 (No. HTB-26), human prostate adenocarcinoma PC3 (No. CRL-1435), human prostate carcinoma DU-145 (No. HTB-81), human lung carcinoma A549 (No. CCL-185) and human lung carcinoma H1299 (No. CRL-5803) cell lines were obtained from the American Type Culture Collection (ATCC, USA).

Notch1 [5] = assay: Notch1 expression in Hct116 cancer cell line; conditions: Hct116 (Colon)
Experimental: as §2

Notch1 [6] = assay: Notch1 expression in A549 cancer cell line; conditions: A549 (Lung)
Experimental: as §2

Notch1 [7] = assay: Notch1 expression in PC3 cancer cell line; conditions: PC3 (Prostate)
Experimental: as §2

Notch1 [8] = assay: Notch1 expression in HT-29 cancer cell line; conditions: HT-29 (Colon)
Experimental: as §2

Notch1 [9] = assay: Notch1 expression in H1299 cancer cell line; conditions: H1299 (Lung)
Experimental: as §2

Notch1 [10] = assay: Notch1 expression in MDA-MB-231 cancer cell line; conditions: MDA-MB-231 (Breast)
Experimental: as §2

Notch1 [11] = assay: Notch1 expression in SK-N-SH cancer cell line; conditions: SK-N-SH (Brain)
Experimental: as §2

Structure (SMILES) | Hes5 expression levels (Hes5) | colonospheres formation (HCT 116 cells) | Notch1 degradation through the proteasome (Notch1 [1]) | Notch1 protein levels in HCT 116 cells (dose and time dependence) (Notch1 [2]; 1, 2.5, 5 and 10 μM for 24 hours, 10 μM at 6, 16 and 24 hours) | Notch1 levels, panel of natural cannabinoids (Notch1 [2]) | Notch1 levels in colonospheres (Notch1 [3]) | Notch1 expression levels, concentration dependence (Notch1 [2]) | Inhibition of Notch1 expression in cancer cells (Notch1 [4]) | Inhibition of Notch1 expression in cancer cells (Notch1 [5]) | Inhibition of Notch1 expression in cancer cells (Notch1 [6]) | Inhibition of Notch1 expression in cancer cells (Notch1 [7]) | Inhibition of Notch1 expression in cancer cells (Notch1 [8]) | Inhibition of Notch1 expression in cancer cells (Notch1 [9]) | Inhibition of Notch1 expression in cancer cells (Notch1 [10]) | Inhibition of Notch1 expression in cancer cells (Notch1 [11])
C=C(C)[C@@H]1CCC(C)=C[C@H]1c1c(O)cc(CCCCC)cc1O [CBD, cannabidiol] | clearly reduces Hes5 expression levels in HCT 116 cells in a time-dependent manner; also recorded: reduces the expression of Hes5 | significantly reduces the colonospheres formation in a clear dose-dependent manner | induces Notch1 degradation by the proteasomal degradation machinery; also recorded: induces Notch1 degradation through the proteasome | reduces Notch1 protein levels in HCT 166 cells in a dose- and time-dependent manner; also recorded: reduces Notch1 expression levels in colonospheres and HCT 116 cells | clearly diminished Notch1 levels; also recorded: reduce Notch1 expression levels | clearly diminished in a dose-dependent manner; also recorded: reduces Notch1 expression levels in colonospheres |  |  |  |  |  |  |  |  | 
C=C(C)[C@@H]1CCC(C)=C[C@H]1c1c(O)cc(CCC)cc1O [CBDV, cannabidivarin] |  | potent dose-dependent anti-proliferative effect of colonospheres formation; also recorded: inhibit colonospheres formation |  |  | clearly diminished Notch1 levels; also recorded: reduce Notch1 expression levels |  | reduce Notch1 expression levels in a concentration-dependent manner |  |  |  |  |  |  |  | 
CCCc1cc(O)c(C/C=C(\C)CCC=C(C)C)c(O)c1 [CBGV, cannabigerovarin] |  | potent dose-dependent anti-proliferative effect of colonospheres formation; also recorded: inhibit colonospheres formation |  |  | clearly diminished Notch1 levels; also recorded: reduce Notch1 expression levels |  | reduce Notch1 expression levels in a concentration-dependent manner | Yes | Yes | Yes | Yes | Yes | Yes | Yes | Yes
